Measurements from patent US20140199277A1, “Methods of Treatment of Retinal Degeneration Diseases” (priority 2011, published 2014).

Columns and labels:
[1] = tested on: human GSK-3; conditions: cited from earlier work
[2] = tested on: Nestin-CRE transgene; assay: Endogenous BM cell fusion-mediated reprogramming induced by intravitreal BIO in Nestin-Cre mice with BM^R26Y; format: in vivo, mouse; conditions: 24 h
Protocol: BM transplantation was conducted as previously reported with minor modifications. The BM of 4- to 6-week-old R26Y or Nestin-Cre recipient mice was reconstituted with BM cells from the tibias and femurs of RFP/CRE or R26Y transgenic mice respectively. BM cells (1×10^7 cells) were injected intravenously into the recipients 3 hours after irradiation with γ-rays (9 Gy). The eyes of the recipients were protected with lead shields to prevent radiation-induced damage (radiation retinopathy). Four weeks after transplantation, the peripheral blood of chimeric mice was extracted from the tail vein, and the reconstituted BM was assessed.
For fluoresceine immunostaining, the primary antibodies used were: anti-Nanog (1:200, R&D), anti-Oct4 (1:100, AbCam), anti-Nestin (1:300, Abcam), anti-GATA4 (1:500, Abcam), anti-Otx2 (1:200, Abcam), anti-Noggin (1:200, Abcam), anti-Hand1 (1:400, Abcam), anti-Tuj-1 (1:100, Abcam), anti-Thy1.1 (1:100, Abcam), anti-syntaxin (1:50, Sigma), anti-glutamine synthetase (Sigma, 1:100) anti-Annexin V (1:200, Abcam), anti-Ki67 (Sigma, 1.100) and anti-BrdU (1:300, Sigma). The secondary antibodies used were: anti-mouse IgG and anti-rabbit IgG antibodies conjugated with Alexa Fluor 488, Alexa Fluor 546 or Alexa Fluor 633 (1:1000; Molecular Probes, Invitrogen).
(§1) The numbers of immunoreactive or of Nanog-GFP- and -YFP-positive cells within three different retinal areas (40× field) were counted in individual sections. A total of ten serial sections were examined for each eye, from at least three different mice. For statistical analysis, the data were expressed as means±SEM, as pooled from at least three independent experiments, each carried out in duplicate. The experiments were performed using at least three different mice. Differences were examined using the unpaired Student t-test.

[3] = tested on: retinal neurons; assay: Damage-dependent cell fusion in vivo after intravitreal transplantation in R26Y eyes; parameters: species or system mouse; conditions: NMDA-damaged eyes of R26Y mice
Protocol: (§2) Mice at the age of 3 months were anaesthetised by injection of ketamine: metomidine (80 mg/kg: 1.0 mg/kg, intraperitoneal (i.p.)). To induce retinal damage, the animals were treated intravitreally with 2 μl of 20 mM N-methyl-D-aspartate (NMDA) (total 40 nmol; Sigma) for 24 h [Timmers et al., Mol Vis 7, 131-137 (2001)]. Control eyes received 2 μl PBS. For the BrdU incorporation assays, the mice received intraperitoneal (i.p.) BrdU administration of 50 mg/kg body weight.
Retinal stem and progenitor cells (RSPCs) were isolated from the ciliary margin of adult Cre mice as previously described [Sanges et al., Proc Natl Acad Sci USA 103, 17366-17371 (2006)]. […]
(§3) Tissues were fixed by immersion in 4% paraformaldehyde overnight, and then embedded in OCT compound (Tissue-Tek). Horizontal serial sections of 10 μm thickness were processed for immunohistochemistry, and visualisation of Nanog-GFP and Rosa26-YFP fluorescence was performed by fluorescent microscopy.
(§4) Percentages of GFP and YFP positive cells were evaluated counterstaining the tissue sections with DAPI (Vectashield, Vector Laboratories, Burlingame, Calif., USA), and they were photographed using either an Axioplan microscope (Zeiss) or a Leica laser confocal microscope system.
The numbers of immunoreactive or of Nanog-GFP- and -YFP-positive cells within three different retinal areas (40× field) were counted in individual sections. […]

[4] = tested on: β-catenin signalling; assay: Activation of β-catenin signalling in treated HSPCs (RT-PCR of Axin2, nuclear translocation of β-catenin); format: cell-based, mouse
Excerpt: According to Treatment A, activation of the Wnt/β-catenin signalling pathway is, at least partially, provided by the implanted cells having their Wnt/β-catenin signalling pathway activated and being selected from the group consisting of a hematopoietic stem cell, a progenitor cell, and a mesenchymal stem cell. The subject to be treated may also have activated the Wnt/β-catenin signalling pathway after retinal damage or injury. In general, the Wnt/β-catenin signalling pathway is activated when the target genes are transcribed; by illustrative, activation of the Wnt/β-catenin signalling pathway may be confirmed by conventional techniques, for example, by analyzing the expression of the target genes, e.g., Axin2, by means known by the skilled person in the art to analyze the expression of genes, such as, for example, RT-PCR (reverse transcription-polymerase chain reaction), or by detection of β-catenin translocation in the nuclei of the cells by conventional techniques, such as, for example, by immunostaining, or by detecting the phosphorylation of Dishevelled or the phosphorylation of the LRP tail, etc.
The stem cells (SCs) were left non-treated or were pretreated with 100 ng/ml Wnt3a or 1 μM BIO, for 24 h, and finally 5×10^5 cells were injected intravitreally into the eyes of the anaesthetised mice. […]

[5] = tested on: Nanog-GFP transgene; assay: In-vivo reprogramming of retinal neurons after fusion, Nanog-GFP-puro mice; parameters: species or system mouse; conditions: for GFP-positive cells after transplantation of pretreated ESCs: ESCs pretreated before transplantation, NMDA-injured eyes
Protocol: as §2
(§5) The stem cells (SCs) were left non-treated or were pretreated with 100 ng/ml Wnt3a or 1 μM BIO, for 24 h, and finally 5×10^5 cells were injected intravitreally into the eyes of the anaesthetised mice. The mice were sacrificed by cervical dislocation, and their eyeballs were enucleated for histological analyses.
as §3, §4, §1

[6] = tested on: neural progenitor cells; conditions: cited from earlier work; for reprogramming of neural precursor cells after cell fusion: periodic activation of the Wnt/β-catenin pathway in ESCs
[7] = tested on: β-catenin; assay: β-catenin immunofluorescence in retinal sections of NMDA-treated eyes; format: in vivo, mouse; conditions: NMDA-damaged eyes
Protocol: FIG. 12. Analysis of reprogramming of retinal neurons after fusion. (A) Immunofluorescence staining using an anti β-catenin antibody (red) was performed on sections from eyes treated either with NMDA, with both NMDA and DKK1 or untreated as control. The expression and nuclear accumulation of β-catenin in retinal cells detected in NMDA-damaged eyes (red arrows) is reduced after treatment with DKK1. Scale bar: 20 μm. (B) Schematic representation of in-vivo reprogramming experimental plan. Red-labelled SPCs either non-treated (control), or treated for 24 h with BIO were injected in NMDA-damaged or undamaged eyes of Nanog-GFP-Puro recipient mice. The expression of GFP in reprogrammed hybrids was analysed one day after injection. […] Nuclei were counterstained with DAPI.
To assess the role of activation of the endogenous Wnt/β-catenin signalling pathway in the reprogramming of retinal neurons, in both of these mouse models, DKK1 was also injected immediately after NMDA injection; DKK1 is an inhibitor of the Wnt/β-catenin pathway [Osakada et al. (2007) cited supra, FIG. 12A]. HSPCs were transplanted after 24 h, and mice were sacrificed 24 h later.

[8] = tested on: Nestin-CRE transgene; assay: In-vivo reprogramming of retinal neurons after fusion, Nestin-CRE mice; parameters: species or system mouse; conditions: injected immediately after NMDA, HSPCs after 24 h
Protocol: as §2, §5, §3
Percentages of GFP and YFP positive cells were evaluated counterstaining the tissue sections with DAPI (Vectashield, Vector Laboratories, Burlingame, Calif., USA), and they were photographed using either an Axioplan microscope (Zeiss) or a Leica laser confocal microscope system. […]

**Q.** Which “inhibition of human GSK-3” value [1] does the source give for `Nc1nc(NCCNc2ncc(-n3ccnc3)c(-c3ccc(Cl)cc3Cl)n2)ccc1[N+](=O)[O-]` [CHIR 98014, 6-pyridinediamine, N6-[2-[[4-(2,4-dichlorophenyl)-5-(1H-imidazol-1-yl)-2-pyrimidinyl]amino]ethyl]-3-nitro-] here?
**A.** potently

**Q.** With `Cc1c[nH]c(-c2cnc(NCCNc3ccc(C#N)cn3)nc2-c2ccc(Cl)cc2Cl)n1` [CHIR 99021, 6-{2-[4-(2,4-dichloro-phenyl)-5-(4-methyl-1H-imidazol-2-yl)-pyrimidin-2-ylamino]-ethylamino}-nicotinonitrile] as the molecule, how does the “inhibition of human GSK-3” value [1] read?
**A.** potently

**Q.** Which “YFP-positive hybrids Annexin-V positive” value ([2]; NMDA+BIO intravitreal) does the source give for `O=C1Nc2cc(Br)ccc2/C1=C1/Nc2ccccc2/C1=N\O` [BIO, 6-bromoindirubin-3'-oxime] here?
**A.** 1%

**Q.** And the “YFP-positive hybrids positive for Ki67” value ([2]; NMDA+BIO intravitreal)?
**A.** About 8%

**Q.** And the “YFP-positive hybrids positive for Nanog” value ([2]; NMDA+BIO intravitreal)?
**A.** 70%

**Q.** What about the “YFP-positive hybrids positive for Oct4” value ([2]; NMDA+BIO intravitreal) of the same molecule?
**A.** 50%

**Q.** And the “YFP-positive cells in the gcl and inl” value ([2]; intravitreal with NMDA)?
**A.** observed

**Q.** What about the “effect of pre-treatment on fusion efficiency of HSPCs, ESCs or RSPCs” value [3] of the same molecule?
**A.** did not enhance the fusion efficiency

**Q.** What about the “β-catenin signalling in HSPCs” value [4] of the same molecule?
**A.** activates β-catenin signalling

**Q.** What about the “GFP-positive cells after transplantation of pretreated ESCs” value [5] of the same molecule?
**A.** strikingly increased

**Q.** And the “fusion efficiency of ESCs with neural progenitor cells” value ([6]; in vitro)?
**A.** does not increase the fusion efficiency

**Q.** What about the “reprogramming of neural precursor cells after cell fusion” value [6] of the same molecule?
**A.** strongly enhances

B1: Wnt3a: Wnt protein isoform, Wnt/β-catenin signalling pathway activator (protein, UniProt P56704 19-352, looked up)
Protein Wnt-3a: SYPIWWSLAVGPQYSSLGSQPILCASIPGLVPKQLRFCRNYVEIMPSVAEGIKIGIQECQHQFRGRRWNCTTVHDSLAIFGPVLDKATRESAFVHAIASAGVAFAVTRSCAEGTAAICGCSSRHQGSPGKGWKWGGCSEDIEFGGMVSREFADARENRPDARSAMNRHNNEAGRQAIASHMHLKCKCHGLSGSCEVKTCWWSQPDFRAIGDFLKDKYDSASEMVVEKHRESRGWVETLRPRYTYFKVPTERDLVYYEASPNFCEPNPETGSFGTRDRTCNVSSHGIDGCDLLCCGRGHNARAERRREKCRCVFHWCCYVSCQECTRVYDVHTCK
**Q.** Which “GFP-positive cells after transplantation of pretreated ESCs” value [5] does the source give for B1 here?
**A.** strikingly increased

**Q.** And the “reprogramming of neural precursor cells after cell fusion” value [6]?
**A.** strongly enhances

B2: DKK1: an inhibitor of the Wnt/β-catenin pathway (protein, UniProt O94907 32-266, looked up)
Dickkopf-related protein 1: TLNSVLNSNAIKNLPPPLGGAAGHPGSAVSAAPGILYPGGNKYQTIDNYQPYPCAEDEECGTDEYCASPTRGGDAGVQICLACRKRRKRCMRHAMCCPGNYCKNGICVSSDQNHFRGEIEETITESFGNDHSTLDGYSRRTTLSSKMYHTKGQEGSVCLRSSDCASGLCCARHFWSKICKPVLKEGQVCTKHRRKGSHGLEIFQRCYCGEGLSCRIQKDHHQASNSSRLHTCQRH
**Q.** Which “expression and nuclear accumulation of β-catenin in retinal cells” value [7] does the source give for B2 here?
**A.** reduced

**Q.** What about the “reprogramming of neuron-HSPC hybrids” value ([5]; injected immediately after NMDA, HSPCs after 24 h, Nanog-GFP-puro mice) of the same molecule?
**A.** almost completely blocked

**Q.** What about the “reprogramming of neuron-HSPC hybrids” value [8] of the same molecule?
**A.** almost completely blocked
